{"source": "patent US6066656A", "about": "“2,5-diamino-3,4-disubstituted-1,6-diphenylhexane isosteres comprising benzamide, sulfonamide and anthranilamide subunits and methods of using same” (The United States of America as represented by the …, priority 1998, dated 2000)", "key": {"[1]": {"tested_on": "p24 synthesis", "test": "Suppression of p24 synthesis", "type": "cell-based, HIV-1", "conditions": "Human immunodeficiency virus 1; read-out: concentrations suppressing p24 synthesis"}, "[2]": {"tested_on": "HIV-1", "test": "Anti-retroviral activity in CEM cells chronically infected with HIV-1 (soluble formazan assay)", "type": "cell-based", "conditions": "Human immunodeficiency virus 1, CCRF-CEM, 50% inhibition of viral activity", "quoted_text": "The concentration of compound that inhibits 50% of viral activity (EC50 ; determined as described in Weislow et al. (1989), supra) and the inhibition constant (Ki, as defined in Example 7) for the compound were determined."}, "[3]": {"tested_on": "CEM cells", "test": "Toxicity of DD-5", "type": "cell-based", "conditions": "even at doses as high as 10^-4 M"}, "[4]": {"tested_on": "viral activity", "conditions": "cited from earlier work"}, "[5]": {"biological_target": "T1, HIV-1 protease (wild-type, WT) (Human immunodeficiency virus type 1 group M subtype B, UniProt P04585)", "T1 construct": "purified HIV-1 protease (wild-type, WT)", "test": "Inhibition of purified wild-type HIV-1 protease (fluorogenic substrate cleavage), Ki and % inhibition", "type": "biochemical", "conditions": "for Ki: read-out: Ki", "method": "The inhibition constants (Ki) for the compounds of the above examples were determined using purified HIV-1 protease (wild-type, WT) (Tables I, II, IV and V) and R8Q and V82I mutant HIV-1 proteases (Table III). Ki is an inhibition constant of a given compound as derived by enzyme kinetics. A low Ki represents a high affinity of the compound for the enzyme, i.e., tight binding or low dissociation. Inhibition of the cleavage was assayed using a fluorogenic substrate available from Molecular Probes, Inc., Eugene, Oreg., and described in Kageyama et al., Antimicrob. Agents. Chemother., 37, 272 (1993), and a fluorogenic substrate available from Bachem California, Torrance, Calif., and described in Kageyama et al. (1993), supra. The inhibitory potencies of these compounds are set forth in Tables I-V. Percent inhibition is the percentage inhibition of an enzyme's activity by a given compound at a given concentration."}, "[6]": {"test": "Fluorescence of compounds", "type": "physicochemical", "description": "The determination of which compounds of the present invention fluoresce can be done in accordance with methods well-known to those of ordinary skill in the art. Such fluorescence can be used to assay for antiviral activity of newly discovered compounds. For example, a fluorescent compound of the present invention can be used as a standard in an antiviral activity assay. The fluorescence of the compound can be measured in the absence and presence of a viral enzyme, such as a retroviral enzyme, in particular a retroviral protease, e.g., an HIV protease, in vitro. A test compound can then be added to the test system comprising the fluorescent compound and the enzyme. The decreased fluorescence of the fluorescent compound of the present invention in the absence and presence of the test compound can be measured and quantitated as a measure of the antiviral activity of the test compound."}}, "note": "Several values for one entry are separate records, joined by “and”; a condition that tells them apart may be missing. Equal entries are not always repeated. Where two headings read alike, the source gives them in different places.", "data": [{"smiles": "O=C(Nc1ccccc1C(=O)N[C@@H](Cc1ccccc1)C[C@H](O)[C@H](Cc1ccccc1)NC(=O)c1ccccc1NC(=O)OCc1ccccn1)OCc1ccccn1", "note": "[Compound 36]", "values": [{"measurement": "minimal effective concentration", "setting": "[1]", "value": "≥ 0.01", "unit": "µM"}, {"measurement": "EC50", "setting": "[2]", "value": 2.4, "unit": "nM"}, {"measurement": "toxicity", "setting": "[3]", "value": "no toxicity"}]}, {"smiles": "CC(C)(C)NC(=O)[C@@H]1C[C@@H]2CCCC[C@@H]2CN1C[C@@H](O)[C@H](Cc1ccccc1)NC(=O)[C@H](CC(N)=O)NC(=O)c1ccc2ccccc2n1", "note": "[Ro31-8959]", "values": [{"measurement": "EC50", "setting": "[4]; comparison compounds in clinical trials", "value": 10, "unit": "nM"}]}, {"smiles": "CC(C)[C@H](NC(=O)N(C)Cc1ccccn1)C(=O)N[C@@H](Cc1ccccc1)[C@H](O)[C@H](O)[C@H](Cc1ccccc1)NC(=O)[C@@H](NC(=O)N(C)Cc1ccccn1)C(C)C", "note": "[Compound A77003]", "values": [{"measurement": "EC50", "setting": "[4]; comparison compound in clinical trials, no unit printed (Ho et al.)", "value": 200, "unit": "nM"}]}, {"smiles": "O=C(Nc1ccccc1C(=O)N[C@@H](Cc1ccccc1)[C@H](O)[C@H](O)[C@H](Cc1ccccc1)NC(=O)c1ccccc1NC(=O)OCc1ccccc1)OCc1ccccc1", "note": "[Compound 27]", "values": [{"measurement": "Ki", "setting": "[5]; Table IV", "value": 2.4, "unit": "nM"}, {"measurement": "relative potency vs compound 26", "setting": "[5]; more potent than compound 26", "value": 20, "unit": "times"}, {"measurement": "Ki", "setting": "[5]", "value": 2.4, "unit": "nM"}, {"measurement": "fluorescence", "setting": "[6]", "value": "good fluorescence"}]}, {"smiles": "O=C(Nc1ccccc1C(=O)N[C@@H](Cc1ccccc1)[C@H](O)[C@H](O)[C@H](Cc1ccccc1)NC(=O)c1ccccc1NC(=O)OCc1ccccn1)OCc1ccccn1", "note": "[Compound 34]", "values": [{"measurement": "Ki", "setting": "[5]; Table IV", "value": 0.06, "unit": "nM"}, {"measurement": "Ki", "setting": "[5]", "value": "0.061 nM and 0.064 nM"}, {"measurement": "fluorescence", "setting": "[6]", "value": "good fluorescence"}, {"measurement": "EC50", "setting": "[2]", "value": 3.2, "unit": "nM"}]}]}
